This note sets out measurements from US20140005163A1 (NOVARTIS AG, priority 2010, published 2014).

Structures are written as SMILES. Some results are limits rather than exact numbers.

The test system of assay [1] is PKB Ser473 phosphorylation in Rat1-myr-HA-p110 beta cells. Description: Reverse protein array assay, PKB Ser473 phosphorylation in Rat1-myr-p110 beta cells. Format: cell-based. To be noted: 0.5 h, pAkt Ser473, 30 minutes incubation, read-out: p-PKB IC50. Put shortly: (§1)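 Lysates were arrayed at four dilutions, and phospho-PKB Ser473 was quantified by relative fluorescence signal. They came from Rat1-myr-HA-p110 alpha, beta or delta cells exposed for 30 min at 37 °C to an 8-point compound series with 0.2% DMSO constant.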

In assay [2] the test system is PKB Ser473 phosphorylation in Rat1-myr-HA-p110 delta cells. Description: Reverse protein array assay, PKB Ser473 phosphorylation in Rat1-myr-p110 delta cells. The format is cell-based. To be noted: read-out: p-PKB IC50. Put shortly: as §1
In a further assay the target is T1, PI3K beta (Homo sapiens, UniProt P42338).
T1 construct: for the full-length p110-b subunit are generated and fused by overlapping PCR; p85(iSH2) fusion partner (see partner chain) (N); His tag (C); made in house; host or cells: baculovirus; Tn5 (Trichoplusia ni) or TiniPro insect cells
Description: PI3K beta kinase assay (Kinase-Glo luminescence). Format: biochemical. Put shortly:
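p110β full-length/p85 iSH2 construct (BV-949), 25 nM, with 1 μM ATP and 10 μg/mL phosphatidylinositol in 10 mM Tris pH 7.5, 3 mM MgCl2, 50 mM NaCl, 0.05% CHAPS, 1 mM DTT. 60 min at room temperature; ATP remaining read by Kinase-Glo luminescence. IC50 from 8-point four-parameter logistic fit.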
(Kinase-Glo reads ATP consumption through a luciferase reaction.)

The test system of assay [3] is PKB Ser473 phosphorylation in Rat1-myr-HA-p110 alpha cells. Description: Reverse protein array assay, PKB Ser473 phosphorylation in Rat1-myr-p110 alpha cells. Format: cell-based. The settings on record: 0.5 h, pAkt Ser473, 30 minutes compound incubation, read-out: p-PKB IC50. In short, it runs like this: as §1

T1 sequence (P42338 with tags, fused parts or gaps limits assumed): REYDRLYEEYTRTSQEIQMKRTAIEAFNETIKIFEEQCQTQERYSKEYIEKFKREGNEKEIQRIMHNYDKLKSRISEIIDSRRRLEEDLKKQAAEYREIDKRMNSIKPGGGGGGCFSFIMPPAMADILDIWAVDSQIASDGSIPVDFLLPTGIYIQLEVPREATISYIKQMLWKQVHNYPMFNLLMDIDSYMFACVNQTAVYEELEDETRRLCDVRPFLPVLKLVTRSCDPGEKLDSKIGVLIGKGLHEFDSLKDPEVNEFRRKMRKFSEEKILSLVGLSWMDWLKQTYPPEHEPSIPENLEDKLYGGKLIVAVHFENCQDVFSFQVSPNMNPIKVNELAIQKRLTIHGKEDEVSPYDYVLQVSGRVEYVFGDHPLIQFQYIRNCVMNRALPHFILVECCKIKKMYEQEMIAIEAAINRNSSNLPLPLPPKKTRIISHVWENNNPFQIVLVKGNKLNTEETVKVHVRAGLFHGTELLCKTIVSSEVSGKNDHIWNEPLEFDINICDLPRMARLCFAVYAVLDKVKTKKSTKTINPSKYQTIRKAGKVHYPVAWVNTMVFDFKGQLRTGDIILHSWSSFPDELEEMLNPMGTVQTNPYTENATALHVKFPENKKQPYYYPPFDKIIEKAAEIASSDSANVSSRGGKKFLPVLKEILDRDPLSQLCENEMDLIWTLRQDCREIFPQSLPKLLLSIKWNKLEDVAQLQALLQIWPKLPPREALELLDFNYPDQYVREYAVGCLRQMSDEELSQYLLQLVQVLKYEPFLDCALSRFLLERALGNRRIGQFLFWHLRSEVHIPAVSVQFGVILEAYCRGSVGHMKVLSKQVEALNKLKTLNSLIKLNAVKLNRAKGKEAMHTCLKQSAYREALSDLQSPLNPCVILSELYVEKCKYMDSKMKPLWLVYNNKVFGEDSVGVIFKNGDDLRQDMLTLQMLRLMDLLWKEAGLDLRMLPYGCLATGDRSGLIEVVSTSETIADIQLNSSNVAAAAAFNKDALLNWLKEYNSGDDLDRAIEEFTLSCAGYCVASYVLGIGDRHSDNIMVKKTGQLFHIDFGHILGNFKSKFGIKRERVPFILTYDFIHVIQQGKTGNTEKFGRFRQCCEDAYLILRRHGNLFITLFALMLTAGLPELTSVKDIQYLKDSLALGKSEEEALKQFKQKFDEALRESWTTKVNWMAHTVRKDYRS

For `CCn1cc(-n2c(=O)n(C)c3cnc4ccc(-c5cncc(C(C)(C)C#N)c5)cc4c32)c(C)n1` [Example 220.2, 2-{5-[1-(1-Ethyl-3-methyl-1H-pyrazol-4-yl)-3-methyl-2-oxo-2,3-dihydro-1H-imidazo[4,5-c]quinolin-8-yl]-pyridin-3-yl}-2-methyl-propionitrile], the IC50 was determined as 32 nM in assay [1], 45 nM in assay [2], 41 nM at PI3K beta and 19 nM in assay [3].

In the case of `Cc1nn(C)cc1-n1c(=O)n(C)c2cnc3ccc(-c4ccc(N5CCCC5)nc4)cc3c21` [Example 97, 1-(1,3-Dimethyl-1H-pyrazol-4-yl)-3-methyl-8-(6-pyrrolidin-1-yl-pyridin-3-yl)-1,3-dihydro-imidazo[4,5-c]quinolin-2-one], the IC50 in assay [1] amounted to 17 nM; in assay [2], 30 nM; in assay [3], 7 nM.

For the compound `CCN(CC)c1cncc(-c2ccc3ncc4c(c3c2)n(-c2cn(C)nc2C)c(=O)n4C)c1` [Example 95, 8-(5-Diethylamino-pyridin-3-yl)-1-(1,3-dimethyl-1H-pyrazol-4-yl)-3-methyl-1,3-dihydro-imidazo[4,5-c]quinolin-2-one], the IC50 is 17 nM in assay [1], 25 nM in assay [2], 41 nM at PI3K beta and under 5 nM in assay [3].

For `Cc1cc(-n2c(=O)n(C)c3cnc4ccc(-c5cnc(N)c(C(F)(F)F)c5)cc4c32)n(C)n1` [Example 25.6, 8-(6-Amino-5-trifluoromethyl-pyridin-3-yl)-1-(2,5-dimethyl-2H-pyrazol-3-yl)-3-methyl-1,3-dihydro-imidazo[4,5-c]quinolin-2-one], the IC50 was determined as 15 nM in assay [1], 32 nM in assay [2], 133 nM on PI3K beta and 8 nM in assay [3].

Consider `Cc1nn(C)cc1-n1c(=O)n(C)c2cnc3ccc(-c4cncc(OC5CCC5)c4)cc3c21` [Example 60.1, 8-(5-Cyclobutoxy-pyridin-3-yl)-1-(1,3-dimethyl-1H-pyrazol-4-yl)-3-methyl-1,3-dihydro-imidazo[4,5-c]quinolin-2-one], for which the IC50 in assay [1] is 23 nM; in assay [2], 33 nM; on PI3K beta it was 3 nM; in assay [3] it was under 5 nM.

As for `COc1ncc(-c2ccc3ncc4c(c3c2)n(-c2cc(C)nn2C)c(=O)n4C)c(OC)n1` [Example 234.4, 8-(2,4-Dimethoxy-pyrimidin-5-yl)-1-(2,5-dimethyl-2H-pyrazol-3-yl)-3-methyl-1,3-dihydro-imidazo[4,5-c]quinolin-2-one], the 50% inhibitory concentration (IC50) in assay [1] worked out at 59 nM; in assay [2], 119 nM; at PI3K beta, 359 nM; in assay [3] it was 17 nM.

`CNc1ncc(-c2ccc3ncc4c(c3c2)n(-c2cn(C(C)C)nc2C)c(=O)n4C)cc1C(F)(F)F` [Example 144.2, 1-(1-Isopropyl-3-methyl-1H-pyrazol-4-yl)-3-methyl-8-(6-methylamino-5-trifluoromethyl-pyridin-3-yl)-1,3-dihydro-imidazo[4,5-c]quinolin-2-one]: the IC50 in assay [1] is 12 nM; in assay [2], 12 nM; at PI3K beta, 40 nM; in assay [3] it was under 5 nM.

In the case of `CN(C)c1ncc(-c2ccc3ncc4c(c3c2)n(-c2cn(C)nc2Cl)c(=O)n4C)cn1` [Example 6.3, 1-(3-Chloro-1-methyl-1H-pyrazol-4-yl)-8-(2-dimethylamino-pyrimidin-5-yl)-3-methyl-1,3-dihydro-imidazo[4,5-c]quinolin-2-one], the IC50 amounted to 15 nM in assay [1], 24 nM in assay [2], 51 nM at PI3K beta and 9 nM in assay [3].

Regarding `CC(C)Oc1cncc(-c2ccc3ncc4c(c3c2)n(-c2cn(C)nc2Cl)c(=O)n4C)c1` [Example 58.2, 1-(3-Chloro-1-methyl-1H-pyrazol-4-yl)-8-(5-isopropoxy-pyridin-3-yl)-3-methyl-1,3-dihydro-imidazo[4,5-c]quinolin-2-one], the IC50 came out at 14 nM in assay [1], 12 nM in assay [2], 5 nM at PI3K beta and 9 nM in assay [3].

Turning to `Cc1nn(C)c(C)c1-n1c(=O)n(C)c2cnc3ccc(-c4cnc(Cl)c(N)c4)cc3c21` [Example 152.3, 8-(5-Amino-6-chloro-pyridin-3-yl)-3-methyl-1-(1,3,5-trimethyl-1H-pyrazol-4-yl)-1,3-dihydro-imidazo[4,5-c]quinolin-2-one], the IC50 in assay [1] was determined as 113 nM; in assay [2] it was 78 nM; at PI3K beta, 79 nM; in assay [3], 123 nM.

As for `Cc1nn(C(C)C)cc1-n1c(=O)n(C)c2cnc3ccc(-c4cnc5c(c4)COC(=O)N5C)cc3c21` [Example 170, 1-(1-Isopropyl-3-methyl-1H-pyrazol-4-yl)-3-methyl-8-(1-methyl-2-oxo-1,4-dihydro-2H-pyrido[2,3-d][1,3]oxazin-6-yl)-1,3-dihydro-imidazo[4,5-c]quinolin-2-one], the IC50 in assay [1] was found to be 370 nM; in assay [2], 607 nM; on PI3K beta, 395 nM; in assay [3], 268 nM.

On to `CCNC(=O)c1cc(-c2ccc3ncc4c(c3c2)n(-c2cn(C(C)C)nc2C)c(=O)n4C)cnc1N` [Example 227, 2-Amino-N-ethyl-5-[1-(1-isopropyl-3-methyl-1H-pyrazol-4-yl)-3-methyl-2-oxo-2,3-dihydro-1H-imidazo[4,5-c]quinolin-8-yl]-nicotinamide], for which the IC50 was 220 nM in assay [1], 240 nM in assay [2], 287 nM at PI3K beta and 136 nM in assay [3].

`Cc1nn(C)cc1-n1c(=O)n(C)c2cnc3ccc(-c4cccc(OC(C)C)c4)cc3c21` [Example 82, 1-(1,3-Dimethyl-1H-pyrazol-4-yl)-8-(3-isopropoxy-phenyl)-3-methyl-1,3-dihydro-imidazo[4,5-c]quinolin-2-one]: the IC50 worked out at 284 nM in assay [1], 314 nM in assay [2], 154 nM at PI3K beta and 44 nM in assay [3].

`Cc1cc(-n2c(=O)n(C)c3cnc4ccc(-c5cnc(F)c(N)c5)cc4c32)n(C)n1` [Example 149.3, 8-(5-Amino-6-fluoro-pyridin-3-yl)-1-(2,5-dimethyl-2H-pyrazol-3-yl)-3-methyl-1,3-dihydro-imidazo[4,5-c]quinolin-2-one]: the IC50 was determined as 84 nM in assay [1], 168 nM in assay [2], 202 nM on PI3K beta and 49 nM in assay [3].

As to `CCn1cc(-n2c(=O)n(C)c3cnc4ccc(-c5cnc(N)c(Cl)c5)cc4c32)c(C)n1` [Example 148.3, 8-(6-Amino-5-chloro-pyridin-3-yl)-1-(1-ethyl-3-methyl-1H-pyrazol-4-yl)-3-methyl-1,3-dihydro-imidazo[4,5-c]quinolin-2-one], the concentration for half-maximal inhibition (IC50) in assay [1] was 10 nM; in assay [2], 14 nM; at PI3K beta, 3 nM; in assay [3], under 5 nM.

In the case of `Cc1cc(-n2c(=O)n(C)c3cnc4ccc(-c5cnc(C)c(O)c5)cc4c32)n(C)n1` [Example 185.2, 1-(2,5-Dimethyl-2H-pyrazol-3-yl)-8-(5-hydroxy-6-methyl-pyridin-3-yl)-3-methyl-1,3-dihydro-imidazo[4,5-c]quinolin-2-one], the IC50 was 88 nM in assay [1], 158 nM in assay [2], 56 nM at PI3K beta and 38 nM in assay [3].

In the case of `CCNc1ncc(-c2ccc3ncc4c(c3c2)n(-c2cn(C)nc2C)c(=O)n4C)cc1C(F)(F)F` [Example 145.2, 1-(1,3-Dimethyl-1H-pyrazol-4-yl)-8-(6-ethylamino-5-trifluoromethyl-pyridin-3-yl)-3-methyl-1,3-dihydro-imidazo[4,5-c]quinolin-2-one], the IC50 in assay [1] was found to be 13 nM; in assay [2], 42 nM; on PI3K beta it was 50 nM; in assay [3], 9 nM.

As to `CCOCc1cc(-c2ccc3ncc4c(c3c2)n(-c2cn(C(C)C)nc2C)c(=O)n4C)cnc1N` [Example 166.3, 8-(6-Amino-5-ethoxymethyl-pyridin-3-yl)-1-(1-isopropyl-3-methyl-1H-pyrazol-4-yl)-3-methyl-1,3-dihydro-imidazo[4,5-c]quinolin-2-one], the 50% inhibitory concentration (IC50) was determined as 119 nM in assay [1], 111 nM in assay [2], 81 nM at PI3K beta and 40 nM in assay [3].

`Cc1nn(C)cc1-n1c(=O)n(C)c2cnc3ccc(-c4cncc(N(C)C5CCC5)c4)cc3c21` [Example 174, 8-[5-(Cyclobutyl-methyl-amino)-pyridin-3-yl]-1-(1,3-dimethyl-1H-pyrazol-4-yl)-3-methyl-1,3-dihydro-imidazo[4,5-c]quinolin-2-one]: the IC50 in assay [1] is 10 nM; in assay [2] it was 12 nM; on PI3K beta, 36 nM; in assay [3], 9 nM.

Turning to `[2H]C([2H])([2H])OCc1ncc(-c2ccc3ncc4c(c3c2)n(-c2cn(C)nc2C)c(=O)n4C)cc1OCC` [Example 198, 1-(1,3-Dimethyl-1H-pyrazol-4-yl)-8-(5-ethoxy-6-trideuteromethoxymethyl-pyridin-3-yl)-3-methyl-1,3-dihydro-imidazo[4,5-c]quinolin-2-one], the 50% inhibitory concentration (IC50) in assay [1] worked out at 37 nM; in assay [2], 89 nM; at PI3K beta, 32 nM; in assay [3], 28 nM.

As usually defined, the IC50 is the concentration that gives 50% inhibition.
